For the first test, the system named is dLight1.1.
Assay: not given
Type of test: cell-based, human. To be noted: 10 μM compound, sensor dLight1.1, mean ± SEM, N = 40 cells.
For `NCCc1c[nH]c2ccc(O)cc12` [5-HT, 5-hydroxytryptamine], the “response normalized to 10 μM DA stimulation” value (“response normalized” below) came to 6.61 ± 0.69%. Still for that read-out and setting: with `CC(=O)OCC[N+](C)(C)C` [ACh, acetylcholine] the figure was 8.22 ± 0.58%. Regarding `CC(C)NCC(O)c1ccc(O)c(O)c1` (centres unmarked) [Iso, isoproterenol], the “response normalized” value was determined as 8.89 ± 0.83%. Same read-out and setting: with `NC[C@H](O)c1ccc(O)c(O)c1` [NE, norepinephrine] the figure was 55.06 ± 4.31%; with `CN1CCc2cc(Cl)c(O)cc2[C@@H](c2ccccc2)C1` [SCH23390], 8.87 ± 0.58%.

The next test has as its system dMASS^1. Put plainly: dMASS^1 response to 1 μM DA in presence of dopamine receptor subtype antagonists. Type of test: cell-based, human.
Details: not given
Turning to `CCN1CCCC1CNC(=O)c1cc(S(N)(=O)=O)ccc1OC` (centres unmarked) [Sulpiride], the “effect on DA-dependent response of dMASS^1” value is reported as “but not dMASS^1”.

In another test the test system is dMASS^1.
Assay: not given
Type of test: cell-based, human. To be noted: 10 μM compound, sensor dMASS^1, mean ± SEM, N = 40 cells.
As to `NCCc1c[nH]c2ccc(O)cc12` [5-HT, 5-hydroxytryptamine], the “response normalized” value stood at 3.32 ± 0.20%. In the case of `CC(=O)OCC[N+](C)(C)C` [ACh, acetylcholine], the “response normalized” value worked out at 3.61 ± 0.14%.

As for `CC(C)NCC(O)c1ccc(O)c(O)c1` (centres unmarked) [Iso, isoproterenol], the “response normalized” value was 3.80 ± 0.21%.

As to `NC[C@H](O)c1ccc(O)c(O)c1` [NE, norepinephrine], the “response normalized” value was 58.00 ± 3.46%. Same read-out and setting: the result for `CN1CCc2cc(Cl)c(O)cc2[C@@H](c2ccccc2)C1` [SCH23390] reads 3.58 ± 0.16%.

The record behind these values is paper PMC10683761 (ACS Sensors, 2023).
